Experimental data published in BindingDB's records for doi:10.1021/cb300426u (University of St. Andrews, 2013).

These molecules were tested against Glucose-1-phosphate thymidylyltransferase (Pseudomonas aeruginosa (strain ATCC 15692 / DSM 22644 / CIP 104116 / JCM 14847 / LMG 12228 / 1C / PRS 101 / PAO1), UniProt Q9HU22) (assay: Inhibition Assay).
Excerpt: Inhibition assay using glucose-1-phosphate thymidylyltransferase (RmlA).

Chain of Glucose-1-phosphate thymidylyltransferase (Q9HU22 whole entry): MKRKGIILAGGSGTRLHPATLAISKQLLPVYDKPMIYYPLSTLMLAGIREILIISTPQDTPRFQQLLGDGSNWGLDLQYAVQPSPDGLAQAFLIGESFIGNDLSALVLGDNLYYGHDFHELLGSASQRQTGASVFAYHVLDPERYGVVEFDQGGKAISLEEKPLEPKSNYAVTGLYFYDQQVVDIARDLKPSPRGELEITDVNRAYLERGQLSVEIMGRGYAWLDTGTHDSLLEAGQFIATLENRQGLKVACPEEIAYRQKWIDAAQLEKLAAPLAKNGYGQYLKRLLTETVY

Row | SMILES | IC50
1 | CCCN(c1c(N)n(Cc2ccccc2)c(=O)[nH]c1=O)S(=O)(=O)c1ccccc1 [Analogue of 1a, 8c] | > 10000 nM
2 | Nc1c(NS(=O)(=O)c2ccccc2)c(=O)[nH]c(=O)n1Cc1ccccc1 [Analogue of 1a, 15a] | 1320 nM
3 | Nc1c(O)n(Cc2ccccc2)c(=O)[nH]c1=O [Analogue of 1a, 2] | 1140 nM
4 | CNc1c(N)n(Cc2ccccc2)c(=O)[nH]c1=O [6-azanyl-5-(methylamino)-1-(phenylmethyl)pyrimidine-2,4-dione] | > 60000 nM
5 | CCN(c1c(N)n(Cc2ccccc2)c(=O)[nH]c1=O)S(=O)(=O)c1ccccc1 [Analogue of 1a, 8b] | 102 nM
6 | CN(c1c(N)n(Cc2ccccc2)c(=O)[nH]c1=O)S(=O)(=O)c1ccco1 [Analogue of 1a, 8t] | 105 nM
7 | CCCCn1c(N)c(N(C)S(=O)(=O)c2ccccc2)c(=O)[nH]c1=O [Analogue of 1a, 1] | 210 nM
8 | CN(c1c(N)n(Cc2ccccc2)c(=O)[nH]c1=O)S(=O)(=O)c1ccccc1 [Analogue of 1a, 8a] | 73 nM
9 | CN(C(=O)c1ccccc1)c1c(N)n(Cc2ccccc2)c(=O)[nH]c1=O [Analogue of 1a, 8f] | > 60000 nM
10 | CCCCn1c(N)c(N(C)C(=O)c2ccco2)c(=O)[nH]c1=O [Analogue of 1a, 5] | 5900 nM
